Measurements as given in patent US11033600B2, “Protease transition state inhibitor prodrugs” (priority 2016, dated 2021).
pEC50, pIC50: −log10 of the molar value. Where two headings read alike, the source gives them in different places.

Legend:
[1] = test system: NV in replicon harboring cells (HG23 cells); assay: Cell-based assay: virus replication in NV replicon harboring cells (HG23 cells), qRT-PCR; design: species or system norovirus (NV); details: for pEC50: HG23 cells, 48 h
Method: The effects of each inhibitor on virus replication were examined against NV in the NV replicon harboring cells (HG23 cells). Briefly, confluent and semi-confluent HG23 cells were incubated with medium containing DMSO (<0.1%) or each compound (up to 200 uM) for 48 h. After the incubation, total RNA was extracted and viral genome was quantitated with real-time quantitative RT-PCR (qRT-PCR). The EC50 values were determined by GraphPadPrism software.

[2] = target: norovirus 3CL protease (NV 3CLpro) (Norovirus, UniProt Q83883); assay: FRET protease assay (3CL protease), enzyme inhibition; type: biochemical
Method: FRET protease assays. The FRET protease assay (3CL protease) was performed by preparing stock solutions of the substrate (Edans-DFHLQ/GP-Dabcyl, SEQ ID NO:1) and inhibitor in DMSO and diluting into assay buffer which was comprised of 20 mM HEPES buffer, pH 8, containing NaCl (200 mM), 0.4 mM EDTA, glycerol (60%), and 6 mM dithiothreitol (DTT). The protease was mixed with serial dilutions of each compound up to 100 μM or with DMSO in 25 μL of assay buffer and incubated at 37° C. for 30 min, followed by the addition of 25 μL of assay buffer containing substrate. Fluorescence readings were obtained using an excitation wavelength of 360 nm and an emission wavelength of 460 nm on a fluorescence microplate reader (FLx800; Biotec, Winoosk, Vt.) 1 h following the addition of substrate. Relative fluorescence units (RFU) were determined by subtracting background values (substrate-containing well without protease) from the raw fluorescence values. The dose-dependent FRET inhibition curves were fitted with a variable slope by using GraphPad Prism software (GraphPad, La Jolla, Calif.) in order to determine the IC50 values of the inhibitors.

[3] = Table 1, ester prodrugs, read-out: EC50 (50% effective concentration in cell culture)
[4] = Table 1, ester prodrugs, average of at least two determinations, read-out: IC50 (50% inhibitory concentration in the enzyme assay)
[5] = Table 2, carbamate prodrugs, read-out: EC50
[6] = Table 2, carbamate prodrugs, read-out: IC50

Chain of norovirus 3CL protease (NV 3CLpro) (Q83883 1101-1281): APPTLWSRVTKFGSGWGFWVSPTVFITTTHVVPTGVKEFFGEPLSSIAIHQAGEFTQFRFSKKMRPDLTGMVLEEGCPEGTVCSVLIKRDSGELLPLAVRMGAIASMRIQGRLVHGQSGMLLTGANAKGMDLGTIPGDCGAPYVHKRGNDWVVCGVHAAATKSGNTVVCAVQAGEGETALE

Row | SMILES | pEC50 [1, 3] | pIC50 [2, 4] | pEC50 [1, 5] | pIC50 [2, 6] | EC50 ([1]; Norovirus, HG23, in μM, read-out: EC50)
1 | CC(=O)OC([C@H](C[C@@H]1CCNC1=O)NC(=O)[C@H](CC(C)C)NC(=O)OCc1ccccc1)S(=O)(=O)O (stereo partly drawn) [Compound 1, (5S,8S)-5-Isobutyl-3,6,11-trioxo-8-(((S)-2-oxopyrrolidin-3-yl)methyl)-1-phenyl-2,10-dioxa-4,7-diazadodecane-9-sulfonate] | 6.22 | 4.98 | – | – | –
2 | CCC(=O)OC([C@H](C[C@@H]1CCNC1=O)NC(=O)[C@H](CC(C)C)NC(=O)OCc1ccccc1)S(=O)(=O)O (stereo partly drawn) [Compound 2, (5S,8S)-5-Isobutyl-3,6,11-trioxo-8-(((S)-2-oxopyrrolidin-3-yl)methyl)-1-phenyl-2,10-dioxa-4,7-diazatridecane-9-sulfonate] | 6.15 | 5.12 | – | – | –
3 | CCCC(=O)OC([C@H](C[C@@H]1CCNC1=O)NC(=O)[C@H](CC(C)C)NC(=O)OCc1ccccc1)S(=O)(=O)O (stereo partly drawn) [Compound 3, (5S,8S)-5-Isobutyl-3,6,11-trioxo-8-(((S)-2-oxopyrrolidin-3-yl)methyl)-1-phenyl-2,10-dioxa-4,7-diazatetradecane-9-sulfonate] | 5.89 | 5.43 | – | – | –
4 | CCCCC(=O)OC([C@H](C[C@@H]1CCNC1=O)NC(=O)[C@H](CC(C)C)NC(=O)OCc1ccccc1)S(=O)(=O)O (stereo partly drawn) [Compound 4, (5S,8S)-5-Isobutyl-3,6,11-trioxo-8-(((S)-2-oxopyrrolidin-3-yl)methyl)-1-phenyl-2,10-dioxa-4,7-diazapentadecane-9-sulfonate] | 5.85 | 5.46 | – | – | –
5 | CCCCCC(=O)OC([C@H](C[C@@H]1CCNC1=O)NC(=O)[C@H](CC(C)C)NC(=O)OCc1ccccc1)S(=O)(=O)O (stereo partly drawn) [Compound 5, (5 S, 8S)-5-Isobutyl-3,6,11-trioxo-8-(((S)-2-oxopyrrolidin-3-yl)methyl)-1-phenyl-2,10-dioxa-4,7-diazahexadecane-9-sulfonate] | 6.52 | 5.55 | – | – | –
6 | CCCCCCCC(=O)OC([C@H](C[C@@H]1CCNC1=O)NC(=O)[C@H](CC(C)C)NC(=O)OCc1ccccc1)S(=O)(=O)O (stereo partly drawn) [Compound 6, (5S,8S)-5-Isobutyl-3,6,11-trioxo-8-(((S)-2-oxopyrrolidin-3-yl)methyl)-1-phenyl-2,10-dioxa-4,7-diazaoctadecane-9-sulfonate] | 6.30 | 5.52 | – | – | –
7 | CC(C)C[C@H](NC(=O)OCc1ccccc1)C(=O)N[C@@H](C[C@@H]1CCNC1=O)C(OC(=O)c1ccccc1)S(=O)(=O)O (stereo partly drawn) [Compound 7, (5S,8S)-5-Isobutyl-3,6,11-trioxo-8-(((S)-2-oxopyrrolidin-3-yl)methyl)-1,11-diphenyl-2,10-dioxa-4,7-diazaundecane-9-sulfonate] | 6.10 | 5.14 | – | – | –
8 | CC(C)C[C@H](NC(=O)OCc1ccccc1)C(=O)N[C@@H](C[C@@H]1CCNC1=O)C(OC(=O)C(C)C)S(=O)(=O)O (stereo partly drawn) [Compound 8, (5S,8S)-5-Isobutyl-12-methyl-3,6,11-trioxo-8-(((S)-2-oxopyrrolidin-3-yl)methyl)-1-phenyl-2,10-dioxa-4,7-diazatridecane-9-sulfonate] | 6.52 | 5.46 | – | – | –
9 | CC(=O)OC([C@H](C[C@@H]1CCNC1=O)NC(=O)[C@H](CC1CCCCC1)NC(=O)OCc1cccc(Cl)c1)S(=O)(=O)O (stereo partly drawn) [Compound 9, (5 S, 8S)-1-(3-Chlorophenyl)-5-(cyclohexylmethyl)-3,6,11-trioxo-8-(((S)-2-oxopyrrolidin-3-yl)methyl)-2,10-dioxa-4,7-diazadodecane-9-sulfonate] | 7.52 | 7.10 | – | – | –
10 | CCC(=O)OC([C@H](CC1CCNC1=O)NC(=O)[C@H](CC1CCCCC1)NC(=O)OCc1cccc(Cl)c1)S(=O)(=O)O (stereo partly shown) [Compound 10, (5 S, 8S)-1-(3-chlorophenyl)-5-(cyclohexylmethyl)-3,6,11-trioxo-8-((2-oxopyrrolidin-3-yl)methyl)-2,10-dioxa-4,7-diazatridecane-9-sulfonate] | 7.60 | 7.00 | – | – | –
11 | CCCCCCCC(=O)OC([C@H](C[C@@H]1CCNC1=O)NC(=O)[C@H](CC1CCCCC1)NC(=O)OCc1cccc(Cl)c1)S(=O)(=O)O (stereo partly drawn) [Compound 12, (5 S, 8S)-1-(3-Chlorophenyl)-5-(cyclohexylmethyl)-3,6,11-trioxo-8-(((S)-2-oxopyrrolidin-3-yl)methyl)-2,10-dioxa-4,7-diazaoctadecane-9-sulfonate] | 7.52 | 6.05 | – | – | –
12 | CC(C)C(=O)OC([C@H](C[C@@H]1CCNC1=O)NC(=O)[C@H](CC1CCCCC1)NC(=O)OCc1cccc(Cl)c1)S(=O)(=O)O (stereo partly drawn) [Compound 13, (5 S, 8S)-1-(3-Chlorophenyl)-5-(cyclohexylmethyl)-12-methyl-3,6,11-trioxo-8-(((S)-2-oxopyrrolidin-3-yl)methyl)-2,10-dioxa-4,7-diazatridecane-9-sulfonate] | 7.52 | 6.52 | – | – | –
13 | O=C(N[C@@H](CC1CCCCC1)C(=O)N[C@@H](C[C@@H]1CCNC1=O)C(OC(=O)C1CCCCC1)S(=O)(=O)O)OCc1cccc(Cl)c1 (stereo partly drawn) [Compound 14, (5 S,8S)-1-(3-Chlorophenyl)-11-cyclohexyl-5-(cyclohexylmethyl)-3,6,11-trioxo-8-(((S)-2-oxopyrrolidin-3-yl)methyl)-2,10-dioxa-4,7-diazaundecane-9-sulfonate] | 7.70 | 6.40 | – | – | –
14 | CC(=O)OC([C@H](C[C@@H]1CCNC1=O)NC(=O)[C@H](CC1CCCCC1)NC(=O)OCc1ccccc1)S(=O)(=O)O (stereo partly drawn) [Compound 15, (5S,8S)-5-(Cyclohexylmethyl)-3,6,11-trioxo-8-(((S)-2-oxopyrrolidin-3-yl)methyl)-1-phenyl-2,10-dioxa-4,7-diazadodecane-9-sulfonate] | 6.70 | 5.12 | – | – | –
15 | O=C(N[C@@H](CC1CCCCC1)C(=O)N[C@@H](C[C@@H]1CCNC1=O)C(OC(=O)C1CCCCC1)S(=O)(=O)O)OCc1ccccc1 (stereo partly drawn) [Compound 16, (5S,8S)-11-Cyclohexyl-5-(cyclohexylmethyl)-3,6,11-trioxo-8-(((S)-2-oxopyrrolidin-3-yl)methyl)-1-phenyl-2,10-dioxa-4,7-diazaundecane-9-sulfonate] | 7.22 | 6.22 | – | – | –
16 | CCCCCCOC(=O)OC([C@H](CC1CCNC1=O)NC(=O)[C@H](CC1CCCCC1)NC(=O)OCc1cccc(Cl)c1)S(=O)(=O)O (stereo partly shown) [Compound 17, (5 S, 8S)-1-(3-chlorophenyl)-5-(cyclohexylmethyl)-3,6,11-trioxo-8-((2-oxo-pyrrolidin-3-yl)methyl)-2,10,12-trioxa-4,7-diazaoctadecane-9-sulfonate] | 7.60 | 6.10 | – | – | –
17 | COC(=O)CNC(=O)OC([C@H](C[C@@H]1CCNC1=O)NC(=O)[C@H](CC(C)C)NC(=O)OCc1ccccc1)S(=O)(=O)O (stereo partly drawn) [Compound 18, (5 S,8S)-5-Isobutyl-3,6,11,14-tetraoxo-8-(((S)-2-oxopyrrolidin-3-yl)methyl)-1-phenyl-2,10,15-trioxa-4,7,12-triazahexadecane-9-sulfonate] | – | – | 6.40 | 5.51 | –
18 | COC(=O)C(C)NC(=O)OC([C@H](C[C@@H]1CCNC1=O)NC(=O)[C@H](CC(C)C)NC(=O)OCc1ccccc1)S(=O)(=O)O (stereo partly drawn) [Compound 19, (5 S,8S)-5-Isobutyl-13-methyl-3,6,11,14-tetraoxo-8-(((S)-2-oxopyrrolidin-3-yl)methyl)-1-phenyl-2,10,15-trioxa-4,7,12-triazahexadecane-9-sulfonate] | – | – | 6.52 | 5.74 | –
19 | O=C[C@H](C[C@@H]1CCNC1=O)NC(=O)[C@H](CC1CCCCC1)NC(=O)OCc1cccc(Cl)c1 [Compound 25, reference compound] | – | – | – | – | 0.02 µM
